In patent publication US20090312380A1, “NOVEL COMPOSITIONS AND METHODS” (priority 2006, published 2009):

How the values were obtained:
Assay type in all cases: physicochemical
[1] = Water surface area from GVS data, BET model; conditions: for Water Surface Area (WSA): BET adsorption model, GVS adsorption runs; for water surface area (ranking): Table 6, compared to samples B or C; for surface hydrophilicity group predicted from the WSA data: WSA data of Table 6 (ESW and BET); for number of hydrophilic domains: from ESW and BET water surface areas and GVS results; for WSA compared with SSA: water surface area versus specific surface area (nitrogen)
Source text: The multilayer sorption model according to Brunauer, Emmet and Teller Journal of the American Chemical Society, vol. 60, pp. 309, 1938) is described as follows:
with: n=number of moles adsorbed at p/p, (=RH/100) • nmono=apparent number of moles adsorbed in monolayer • p/ps=gas partial pressure (=RH/100 in the GVS experiments) • C=BET constant (measure for the strength of the sorption interaction)
From the sorption kinetics, the equilibrium weight changes at the end of each RH stage are extracted to compile xy-data pairs (RH vs. adsorbed amount).
From this, a plot of [p/ps]/[n(1−p/ps)] versus p/ps should give a linear correlation with intercept b=1/[C(nmono)] and slope m=b(C−1).
Evaluation is done by using 5-7 data points (RH vs. adsorbed amount) in the RH range 5-30% RH, which are then used for linear regression to obtain the intercept b and slope m (as explained above). The data is considered acceptable, if the correlation coefficient (r^2) of the linear regression is >0.95, although a correlation coefficient of ≧0.99 should be obtainable for most data sets. From slope and intercept, one can calculate the BET constant C and apparent monolayer amount nmono.
The calculated monolayer coverage nmono obtained from the application of the gas sorption models to GVS data can be re-calculated to water surface area Awater, taking into account the mean cross sectional area aH2O occupied by one water molecule upon adsorption:
with: Awater=water surface area [m^2/g] • aH2O mean cross sectional area of one water molecule adsorbed 10^−19 m^2/molecule • nmono=apparent amount adsorbed in the monolayer [mol] • NL=Lochschmidt number=6×10^23 molecules/mol • mdry (sample)=dry mass of sample [g]
The determination of the BET water surface area is illustrated for sample A as follows. From the relative humidity data and the mass difference, p/ps and [p/ps]/[n(1−p/ps)] were calculated to give the values shown in Table 4.
A plot of p/ps versus [p/ps]/[n(1−p/ps)] was then generated (see FIG. 2) allowing the slope (m=26.726) and the intercept (b=3.8219) to be calculated. Using the equations b=1/[C(nmono)] and m=b(C−1), the apparent monolayer amount, n^mono, was calculated to equate to 0.0327 mg. This in turn led to a WSA of 5.9 m^2/g, using equation (A4) above, wherein mdry=18.57 mg.

[2] = Gravimetric vapour sorption (GVS), water vapour adsorption; conditions: for water vapour adsorption (comparison): GVS, compared with samples B or C
Source text: GVS is a method traditionally used to detect quantitative weight changes of samples as a function of the relative humidity (RH). Samples, which can comprise solid-state samples such as powders and tablets, but also liquids, are exposed to a defined humidity profile. The corresponding weight change is continuously recorded via an ultra-microbalance. Defined humidity levels are established by mixing defined ratios of a dry carrier gas, usually nitrogen, and a wet stream, typically a water vapour saturated carrier gas such as nitrogen. The RH level is then controlled by the ratio of the dry:wet stream. To maintain isothermal conditions, the GVS apparatus which comprises a microbalance and humidification unit is set up in an incubator system held at a defined temperature. The primary information obtained by a typical commercial GVS system is: • Kinetics of water uptake: • The kinetic of the water uptake is a mass vs. time plot at constant RH level. The equilibrium between sample and humidity can be determined from this information. • Sorption isotherms: • The equilibrium weight changes at each humidity are related to the dry mass of the sample (i.e. the equilibrium mass at 0% RH). The equilibrium weight changes as a function of the RH level are the corresponding sorption isotherms of the sample. Typical sorption isotherms comprise adsorption, i.e. increasing RH levels, and desorption, i.e. decreasing RH levels, cycles. Typically, RH ranges from 0-95% RH are covered. For this purpose, water vapour sorption experiments can be carried out as follows: • Adsorption segment range 0-98% RH, preferably 0-50% RH. • Adsorption segment RH-step size of 10% RH or smaller, preferably 5% RH or 2.5% RH. • Desorption segment range 98-0% RH, preferably 50-0% RH. • Desorption segment RH-step size of 10% RH or smaller, preferably 5% RH or 2.5% RH. • Equilibration times at each humidity of 15 minutes and longer, preferably 30 minutes and longer, most preferably 60 minutes and longer. The important factor here is that all water vapour sorption uptakes used for further evaluation do reach equilibrium, i.e. that the weight change over time within each RH-step kinetic should be very small at the end of each RH segment. For these purposes, typical equilibration times are given. • Isothermal temperature in the range 5-50° C., preferably 25-37° C., most preferably about 25° C. • Sample masses of 10-50 mg, preferably 15-50 mg. […] Compression/compaction of the sample should be avoided in order to ensure that there are enough voids in any powder sample to allow the water vapour to penetrate. From these experiments, the primary information obtained is the sorption kinetic (mass vs. time at constant humidity) as well as the conventional sorption isotherm (weight change related to dry value vs. RH level), as previously described. The four samples A-D of irbesartan were also subjected to GVS to assess the extent of any water adsorption. […] The water adsorption results obtained from the GVS analysis are illustrated in Table 3.

[3] = BET nitrogen adsorption analysis, total specific surface area; conditions: for Specific Surface Area (nitrogen): BET nitrogen adsorption model, 77.3K
Source text: The D values represent particle size medians from the detected particle size distribution curves. D(v, x) means that 100x % of particles are smaller than the corresponding D value, and 100-100x % of particles are larger. The samples were also subjected to the Brunauer-Emmett-Teller (BET)-nitrogen adsorption analysis to determine the total surface area of the samples as follows:
Approximately 0.2-0.5 g of material (accurately weighed) was loaded into a surface area analyser glass tube fitted with a glass rod in order to minimise the overall free space. The sample was then outgased under vacuum at 30° C. for several hours. Upon completion of the outgas step, the sample tube was removed from the analyser and backfilled with helium to avoid refilling with air from the surrounding environment. The sample tube was reweighed in order to calculate the amount of dry sample used during the analysis step. The analyser tube was then loaded into the surface area analyser, and free space analysis was then conducted in order to account for the free volume in the tube and thus accurately measure the quantity of gas adsorbed directly on the powder surface. Nitrogen gas adsorption measurement was executed in a liquid nitrogen filled dewar at 77.3K. BET multipoint surface area determination was performed in the partial pressure range p/po=0.1-0.3 with 5 data points. Specific surface area calculation was performed by linear regression analysis of data according to the BET equation.

Compound: CCCCC1=NC2(CCCC2)C(=O)N1Cc1ccc(-c2ccccc2-c2nnn[nH]2)cc1 [Sample A, irbesartan]
- Water Surface Area (WSA) [1]: 5.9 m^2/g
- Water Surface Area (WSA) ([1]; listed as sample A): 5.9 m^2/g
- apparent monolayer amount nmono ([1]; BET model, mdry=18.57 mg): 0.0327 mg
- water surface area (ranking) [1]: largest water surface areas
- surface hydrophilicity group predicted from the WSA data [1]: relatively hydrophilic
- number of hydrophilic domains [1]: approximately twice the number of hydrophilic domains
- WSA compared with SSA [1]: greater than the SSA
- Water Adsorption ([2]; 5 % RH): 0.06 wt %
- Water Adsorption ([2]; 10 % RH): 0.09 wt %
- Water Adsorption ([2]; 15 % RH): 0.12 wt %
- Water Adsorption ([2]; 20 % RH): 0.14 wt %
- Water Adsorption ([2]; 25 % RH): 0.17 wt %
- Water Adsorption ([2]; 30 % RH): 0.20 wt %
- Water Adsorption ([2]; 35 % RH): 0.22 wt %
- Water Adsorption ([2]; 40 % RH): 0.24 wt %
- Water Adsorption ([2]; 50 % RH): 0.29 wt %
- Water Adsorption ([2]; 60 % RH): 0.34 wt %
- Water Adsorption ([2]; 70 % RH): 0.39 wt %
- Water Adsorption ([2]; 80 % RH): 0.44 wt %
- Water Adsorption ([2]; 90 % RH): 0.52 wt %
- water vapour adsorption (comparison) [2]: greater water vapour adsorption
- Rel. adsorbed amount n ([2]; RH 0.33 %): 0.0258 wt %
- Abs. adsorbed amount n ([2]; RH 4.98 %): 0.0110 mg
- Rel. adsorbed amount n ([2]; RH 4.98 %): 0.0592 wt %
- Abs. adsorbed amount n ([2]; RH 10.01 %): 0.0166 mg
- Rel. adsorbed amount n ([2]; RH 10.01 %): 0.0894 wt %
- Abs. adsorbed amount n ([2]; RH 15.00 %): 0.0219 mg
- Rel. adsorbed amount n ([2]; RH 15.00 %): 0.1179 wt %
- Abs. adsorbed amount n ([2]; RH 19.99 %): 0.0265 mg
- Rel. adsorbed amount n ([2]; RH 19.99 %): 0.1427 wt %
- Abs. adsorbed amount n ([2]; RH 25.02 %): 0.0320 mg
- Rel. adsorbed amount n ([2]; RH 25.02 %): 0.1723 wt %
- Abs. adsorbed amount n ([2]; RH 30.00 %): 0.0369 mg
- Rel. adsorbed amount n ([2]; RH 30.00 %): 0.1987 wt %
- Rel. adsorbed amount n ([2]; RH 34.98 %): 0.2207 wt %
- Rel. adsorbed amount n ([2]; RH 40.02 %): 0.2439 wt %
- Rel. adsorbed amount n ([2]; RH 49.98 %): 0.2902 wt %
- Rel. adsorbed amount n ([2]; RH 60.00 %): 0.3392 wt %
- Rel. adsorbed amount n ([2]; RH 70.02 %): 0.3855 wt %
- Rel. adsorbed amount n ([2]; RH 79.99 %): 0.4372 wt %
- Rel. adsorbed amount n ([2]; RH 90.01 %): 0.5152 wt %
- Rel. adsorbed amount n ([2]; RH 93.03 %): 0.5233 wt %
- Specific Surface Area (nitrogen) [3]: 5.17 m^2/g

Compound: CCCCC1=NC2(CCCC2)C(=O)N1Cc1ccc(-c2ccccc2-c2nnn[nH]2)cc1 [Sample C, irbesartan]
- Water Surface Area (WSA) [1]: 3.6 m^2/g
- surface hydrophilicity group predicted from the WSA data [1]: relatively hydrophobic
- number of hydrophilic domains [1]: approximately a similar number of hydrophilic domains as each other
- WSA compared with SSA [1]: greater than the SSA
- Water Adsorption ([2]; 5 % RH): 0.04 wt %
- Water Adsorption ([2]; 10 % RH): 0.07 wt %
- Water Adsorption ([2]; 15 % RH): 0.08 wt %
- Water Adsorption ([2]; 20 % RH): 0.09 wt %
- Water Adsorption ([2]; 25 % RH): 0.11 wt %
- Water Adsorption ([2]; 30 % RH): 0.13 wt %
- Water Adsorption ([2]; 35 % RH): 0.14 wt %
- Water Adsorption ([2]; 40 % RH): 0.15 wt %
- Water Adsorption ([2]; 50 % RH): 0.18 wt %
- Water Adsorption ([2]; 60 % RH): 0.21 wt %
- Water Adsorption ([2]; 70 % RH): 0.23 wt %
- Water Adsorption ([2]; 80 % RH): 0.27 wt %
- Water Adsorption ([2]; 90 % RH): 0.31 wt %
- Specific Surface Area (nitrogen) [3]: 3.16 m^2/g

Compound: CCCCC1=NC2(CCCC2)C(=O)N1Cc1ccc(-c2ccccc2-c2nnn[nH]2)cc1 [Sample B, irbesartan]
- Water Surface Area (WSA) [1]: 3.2 m^2/g
- surface hydrophilicity group predicted from the WSA data [1]: relatively hydrophobic
- number of hydrophilic domains [1]: approximately a similar number of hydrophilic domains as each other
- Water Adsorption ([2]; 5 % RH): 0.03 wt %
- Water Adsorption ([2]; 10 % RH): 0.04 wt %
- Water Adsorption ([2]; 15 % RH): 0.06 wt %
- Water Adsorption ([2]; 20 % RH): 0.07 wt %
- Water Adsorption ([2]; 25 % RH): 0.09 wt %
- Water Adsorption ([2]; 30 % RH): 0.10 wt %
- Water Adsorption ([2]; 35 % RH): 0.11 wt %
- Water Adsorption ([2]; 40 % RH): 0.13 wt %
- Water Adsorption ([2]; 50 % RH): 0.15 wt %
- Water Adsorption ([2]; 60 % RH): 0.18 wt %
- Water Adsorption ([2]; 70 % RH): 0.20 wt %
- Water Adsorption ([2]; 80 % RH): 0.23 wt %
- Water Adsorption ([2]; 90 % RH): 0.28 wt %
- specific surface area (ranking among samples A-D) ([3]; BET nitrogen adsorption): greatest specific surface area
- Specific Surface Area (nitrogen) [3]: 6.16 m^2/g

Compound: CCCCC1=NC2(CCCC2)C(=O)N1Cc1ccc(-c2ccccc2-c2nnn[nH]2)cc1 [Sample D, irbesartan]
- Water Surface Area (WSA) [1]: 6.5 m^2/g
- water surface area (ranking) [1]: largest water surface areas
- surface hydrophilicity group predicted from the WSA data [1]: relatively hydrophilic
- number of hydrophilic domains [1]: approximately twice the number of hydrophilic domains
- WSA compared with SSA [1]: greater than the SSA
- Water Adsorption ([2]; 5 % RH): 0.07 wt %
- Water Adsorption ([2]; 10 % RH): 0.10 wt %
- Water Adsorption ([2]; 15 % RH): 0.13 wt %
- Water Adsorption ([2]; 20 % RH): 0.16 wt %
- Water Adsorption ([2]; 25 % RH): 0.19 wt %
- Water Adsorption ([2]; 35 % RH): 0.23 wt %
- Water Adsorption ([2]; 40 % RH): 0.26 wt %
- Water Adsorption ([2]; 50 % RH): 0.33 wt %
- Water Adsorption ([2]; 60 % RH): 0.39 wt %
- Water Adsorption ([2]; 70 % RH): 0.46 wt %
- Water Adsorption ([2]; 80 % RH): 0.52 wt %
- Water Adsorption ([2]; 90 % RH): 0.63 wt %
- water vapour adsorption (comparison) [2]: greater water vapour adsorption
- Specific Surface Area (nitrogen) [3]: 4.29 m^2/g
